The record followed here is patent US7202241B2, “Benzoxazine derivatives and uses thereof” (Roche Palo Alto LLC, priority 2003, dated 2007).

T1 sequence (P50406 whole entry): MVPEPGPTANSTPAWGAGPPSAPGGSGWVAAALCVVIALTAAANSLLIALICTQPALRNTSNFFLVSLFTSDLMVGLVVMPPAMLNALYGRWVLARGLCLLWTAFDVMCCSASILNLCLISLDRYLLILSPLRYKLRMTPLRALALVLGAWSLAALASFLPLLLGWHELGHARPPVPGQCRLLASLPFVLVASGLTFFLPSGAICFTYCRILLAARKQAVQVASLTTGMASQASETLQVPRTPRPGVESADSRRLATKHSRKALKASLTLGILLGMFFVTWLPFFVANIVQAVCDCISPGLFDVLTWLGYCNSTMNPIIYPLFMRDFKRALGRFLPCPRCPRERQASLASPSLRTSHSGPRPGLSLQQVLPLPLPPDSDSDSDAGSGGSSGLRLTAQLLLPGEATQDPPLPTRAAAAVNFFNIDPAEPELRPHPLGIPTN

The experiment has as its target T1, recombinant human 5-HT6 receptor (Homo sapiens, UniProt P50406).
T1 construct: expressed in transfected cells; membranes
The experiment in a line: in vitro radioligand binding, [3H]LSD competition in membranes of HEK293 cells expressing 5-HT6. As to conditions: [3H]LSD (5 nM) displacement, HEK293 cell membranes, 60 min at 37° C., pH 7.4. Here is the method:
This example illustrates in vitro radioligand binding studies of compound of formula (I).
The binding activity of compounds of this invention in vitro was determined as follows. Duplicate determinations of ligand affinity are made by competing for binding of [^3H]LSD in cell membranes derived from HEK293 cells stably expressing recombinant human 5-HT6 receptor. This cell line was prepared by the method described by Monsma et al., Molecular Pharmacology, Vol. 43 pp. 320–327 (1993).
All determinations were made in assay buffer containing 50 mM Tris-HCl, 10 mM MgSO4, 0.5 mM EDTA, 1 mM ascorbic acid, pH 7.4 at 37° C., in a 250 microliter reaction volume. Assay tubes containing [^3H] LSD (5 nM), competing ligand, and membrane were incubated in a shaking water bath for 60 min. at 37° C., filtered onto Packard GF-B plates (pre-soaked with 0.3% PEI) using a Packard 96 well cell harvester and washed 3 times in ice cold 50 mM Tris-HCl. Bound [^3H] LSD was determined as radioactive counts per minute using Packard TopCount.
Displacement of [3H]LSD from the binding sites was quantified by fitting concentration-binding data to a 4-parameter logistic equation:
[formula] where Hill is the Hill slope, [ligand] is the concentration of competing radioligand and IC50 is the concentration of radioligand producing half-maximal specific binding of radioligand. The specific binding window is the difference between the Bmax and the basal parameters.
In the case of `CC1(C)CN(S(=O)(=O)c2ccccc2F)c2cccc(N3CCNCC3)c2O1` [4-(2-Fluoro-benzenesulfonyl)-2,2-dimethyl-8-piperazin-1-yl-3,4-dihydro-2H-benzo[1,4]oxazine], the Ki was 0.209 nM.
With `O=S(=O)(c1ccccc1F)N1CCOc2c(N3CCNCC3)cc(F)cc21` [6-Fluoro-4-(2-fluoro-benzenesulfonyl)-8-piperazin-1-yl-3,4-dihydro-2H-benzo[1,4]oxazine], the Ki was 0.724 nM.
Same read-out and setting: as for `O=S(=O)(c1ccccc1Cl)N1CCOc2c(N3CCNCC3)cccc21` [4-(2-Chloro-benzenesulfonyl)-8-piperazin-1-yl-3,4-dihydro-2H-benzo[1,4]oxazine], the figure is 2.14 nM.
`O=S(=O)(c1ccccc1F)N1CCOc2c(N3CCNCC3)cccc21` [4-(2-Fluoro-benzenesulfonyl)-8-piperazin-1-yl-3,4-dihydro-2H-benzo[1,4]oxazine]: the Ki was 1.26 nM.
Turning to `O=S(=O)(c1cccc(Cl)c1)N1CC2(CCC2)Oc2c(N3CCNCC3)cccc21` [4-(3-Chloro-benzenesulfonyl)-2,2-spiro-cyclobutan-8-piperazin-1-yl-3,4-dihydro-2H-benzo[1,4]oxazine], the pKi is 9.30.
In the case of `O=S(=O)(c1cccc(F)c1)N1CC2(CCC2)Oc2c(N3CCNCC3)cccc21` [4-(3-Fluoro-benzenesulfonyl)-2,2-spiro-cyclobutan-8-piperazin-1-yl-3,4-dihydro-2H-benzo[1,4]oxazine], the Ki was 1.17 nM.
`CC1(C)CN(S(=O)(=O)c2ccccc2F)c2cc(F)cc(N3CCNCC3)c2O1` [6-Fluoro-4-(2-fluoro-benzenesulfonyl)-2,2-dimethyl-8-piperazin-1-yl-3,4-dihydro-2H-benzo[1,4]oxazine]: the Ki was 0.209 nM.
Still for that read-out and setting: as for `O=S(=O)(c1cccc(F)c1)N1CCOc2c(N3CCNCC3)cccc21` [4-(3-Fluoro-benzenesulfonyl)-8-piperazin-1-yl-3,4-dihydro-2H-benzo[1,4]oxazine], the figure is 11.2 nM; as for `Cc1cc(N2CCNCC2)c2c(c1)N(S(=O)(=O)c1cccc(F)c1)CCO2` [4-(3-Fluoro-benzenesulfonyl)-6-methyl-8-piperazin-1-yl-3,4-dihydro-2H-benzo[1,4]oxazine], 2 nM; as for `Cc1cc(N2CCNCC2)c2c(c1)N(S(=O)(=O)c1cccc(F)c1)CC(C)(C)O2` [4-(3-Fluoro-benzenesulfonyl)-2,2,6-trimethyl-8-piperazinyl-yl-3,4-dihydro-2H-benzo[1,4]oxazine], 0.407 nM.

As usually defined, the Ki is the dissociation constant of the complex between target and ligand, obtained from inhibition or displacement. A word on the pKi: it is −log10 of the Ki, conventionally taken in molar units.
